Measured values: patent publication US20250367126A1, “SOFTGEL CAPSULE COMPRISING A H2 RECEPTOR ANTAGONIST” (KENVUE BRANDS LLC, priority 2024, published 2025)
Where two headings read alike, the source gives them in different places.

Columns and labels:
[1] = Procedure: For this evaluation, excipients were added to clear glass vials at ambient temperature. […] The vials were attached to a Burrell Action Wrist Shaker (mechanical shaker) and agitated for approximately 60 hours (hrs) at ambient conditions.
After shaking for approximately 60 hrs, a first portion of the supernatant solution from each vial was submitted for chemical analysis. A second portion of the remaining dispersions was transferred to amber vials and stored at ambient conditions.

[2] = J Pharm Pharmacol 1993, 45:682-686, cited from earlier work
[3] = Acidified PEG 400 Solution with water [PEG 400 (59.7%) + acetic acid (30.0%) + water (10.3%)], 2 Weeks in Amber Vials
[4] = Acidified PEG 400 Solution with water [PEG 400 (59.7%) + acetic acid (30.0%) + water (10.3%)], 2 Weeks in Clear Vials
[5] = Acidified PEG 400 Solution with water [PEG 400 (59.7%) + acetic acid (30.0%) + water (10.3%)], Initial
[6] = Caprylocaproyl Polyoxyl-8 Glycerides NF (Labrasol), 2 Weeks in Amber Vials
[7] = Caprylocaproyl Polyoxyl-8 Glycerides NF (Labrasol), 2 Weeks in Clear Vials
[8] = Caprylocaproyl Polyoxyl-8 Glycerides NF (Labrasol), Initial
[9] = Medium Chain Triglycerides NF (MCT), 2 Weeks in Amber Vials
[10] = Medium Chain Triglycerides NF (MCT), 2 Weeks in Clear Vials
[11] = Medium Chain Triglycerides NF (MCT), Initial
[12] = Mono/Diglycerides of Capric/Caprylic Acid NF (Capmul MCM), 2 Weeks in Amber Vials
[13] = Mono/Diglycerides of Capric/Caprylic Acid NF (Capmul MCM), 2 Weeks in Clear Vials
[14] = Mono/Diglycerides of Capric/Caprylic Acid NF (Capmul MCM), Initial
[15] = Polyethylene Glycol 400, NF (PEG 400), 2 Weeks in Amber Vials
[16] = Polyethylene Glycol 400, NF (PEG 400), 2 Weeks in Clear Vials
[17] = Polyethylene Glycol 400, NF (PEG 400), Initial
[18] = Polyoxyl-35 Castor Oil NF (Kolliphor EL), 2 Weeks in Amber Vials
[19] = Polyoxyl-35 Castor Oil NF (Kolliphor EL), 2 Weeks in Clear Vials
[20] = Polyoxyl-35 Castor Oil NF (Kolliphor EL), Initial
[21] = Polysorbate 80 NF (Tween 80), 2 Weeks in Amber Vials
[22] = Polysorbate 80 NF (Tween 80), 2 Weeks in Clear Vials
[23] = Polysorbate 80 NF (Tween 80), Initial

NC(N)=Nc1nc(CSCCC(N)=NS(N)(=O)=O)cs1 [famotidine]
Equilibrium solubility of famotidine, mg/g Solvent [1, 3]: 137 mg/g
Equilibrium solubility of famotidine, mg/g Total [1, 3]: 121 mg/g
Equilibrium solubility of famotidine, mg/g Solvent [1, 4]: 141 mg/g
Equilibrium solubility of famotidine, mg/g Total [1, 4]: 124 mg/g
Equilibrium solubility of famotidine, mg/g Solvent [1, 5]: 160 mg/g
Equilibrium solubility of famotidine, mg/g Total [1, 5]: 138 mg/g
Equilibrium solubility of famotidine, mg/g Solvent [1, 6]: 58 mg/g
Equilibrium solubility of famotidine, mg/g Total [1, 6]: 55 mg/g
Equilibrium solubility of famotidine, mg/g Solvent [1, 7]: 61 mg/g
Equilibrium solubility of famotidine, mg/g Total [1, 7]: 57 mg/g
Equilibrium solubility of famotidine, mg/g Solvent [1, 8]: 61 mg/g
Equilibrium solubility of famotidine, mg/g Total [1, 8]: 57 mg/g
Equilibrium solubility of famotidine, mg/g Solvent ([1]; Glacial acetic acid, Initial): 318 mg/g
Equilibrium solubility of famotidine, mg/g Total ([1]; Glacial acetic acid, Initial): 241 mg/g
Equilibrium solubility of famotidine, mg/g Solvent [1, 9]: ND (“ND” means not detected, famotidine content was below 0.1 mg/g.)
Equilibrium solubility of famotidine, mg/g Total [1, 9]: ND (“ND” means not detected, famotidine content was below 0.1 mg/g.)
Equilibrium solubility of famotidine, mg/g Solvent [1, 10]: ND (“ND” means not detected, famotidine content was below 0.1 mg/g.)
Equilibrium solubility of famotidine, mg/g Total [1, 10]: ND (“ND” means not detected, famotidine content was below 0.1 mg/g.)
Equilibrium solubility of famotidine, mg/g Solvent [1, 11]: ND (“ND” means not detected, famotidine content was below 0.1 mg/g.)
Equilibrium solubility of famotidine, mg/g Total [1, 11]: ND (“ND” means not detected, famotidine content was below 0.1 mg/g.)
Equilibrium solubility of famotidine, mg/g Solvent [1, 12]: 3 mg/g
Equilibrium solubility of famotidine, mg/g Total [1, 12]: 3 mg/g
Equilibrium solubility of famotidine, mg/g Solvent [1, 13]: 3 mg/g
Equilibrium solubility of famotidine, mg/g Total [1, 13]: 3 mg/g
Equilibrium solubility of famotidine, mg/g Solvent [1, 14]: 3 mg/g
Equilibrium solubility of famotidine, mg/g Total [1, 14]: 3 mg/g
Equilibrium solubility of famotidine, mg/g Solvent [1, 15]: 115 mg/g
Equilibrium solubility of famotidine, mg/g Total [1, 15]: 103 mg/g
Equilibrium solubility of famotidine, mg/g Solvent [1, 16]: 116 mg/g
Equilibrium solubility of famotidine, mg/g Total [1, 16]: 104 mg/g
Equilibrium solubility of famotidine, mg/g Solvent [1, 17]: 118 mg/g
Equilibrium solubility of famotidine, mg/g Total [1, 17]: 106 mg/g
Equilibrium solubility of famotidine, mg/g Solvent [1, 18]: 64 mg/g
Equilibrium solubility of famotidine, mg/g Total [1, 18]: 60 mg/g
Equilibrium solubility of famotidine, mg/g Solvent [1, 19]: 63 mg/g
Equilibrium solubility of famotidine, mg/g Total [1, 19]: 60 mg/g
Equilibrium solubility of famotidine, mg/g Solvent [1, 20]: 64 mg/g
Equilibrium solubility of famotidine, mg/g Total [1, 20]: 60 mg/g
Equilibrium solubility of famotidine, mg/g Solvent [1, 21]: 45 mg/g
Equilibrium solubility of famotidine, mg/g Total [1, 21]: 43 mg/g
Equilibrium solubility of famotidine, mg/g Solvent [1, 22]: 36 mg/g
Equilibrium solubility of famotidine, mg/g Total [1, 22]: 35 mg/g
Equilibrium solubility of famotidine, mg/g Solvent [1, 23]: 45 mg/g
Equilibrium solubility of famotidine, mg/g Total [1, 23]: 43 mg/g
Equilibrium solubility of famotidine, mg/g Solvent ([1]; Propylene Glycol USP, Initial): 17 mg/g
Equilibrium solubility of famotidine, mg/g Total ([1]; Propylene Glycol USP, Initial): 17 mg/g
solubility of famotidine (in words) ([1]; hydrophilic solvents (PEG 400, acidified PEG 400 solution with water, glacial acetic acid)): High solubility
aqueous solubility [2]: poor aqueous solubility
lipophilicity [2]: poor lipophilicity
stability versus pH ([2]; liquid media): low stability outside a pH range of 6 to 7
